A short description of data set [1]: Solubility. In kind it is physicochemical.
Data set [2] can be described thus: Stability of olesoxime (solid state, oral suspension in sesame oil). In kind it is physicochemical. The note with it: 25° C./60% RH. How it is done: Examples of compositions comprising olexosime are described in US2010099652A1. […] Olesoxime has low aqueous solubility (less than 5 μg/ml) across the physiological pH range. It is freely soluble or soluble in a range of non-aqueous solvents.
7.5 g crystalline olesoxime powder (particle size distribution with d90 value 70-90 μm) was suspended in 75 ml (61.6 g) sesame oil (refined) as vehicle through agitation (e.g. shaking) to yield a homogeneous suspension (final olesoxime concentration 100 mg/ml).

Data set [3] concerns patients with Types 2 and 3 SMA. The note with it: two-year treatment period, compared with approximately two-point decline in the placebo arm; cited from earlier work.
In data set [4] the test system is neonatal rats. The note with it: cited from earlier work.
Data set [5] deals with adult mice. The note with it: cited from earlier work.
Data set [6] concerns full length SMN2 minigene mRNA. Briefly: SMN2 minigene mRNA splicing RT-qPCR assay in cultured cells. The note with it: Homo sapiens, HEK293-H; HEK293H cells stably transfected with SMN2-A minigene, 24 hours, 7-point concentration curve; read-out: EC1.5x minigene. In kind it is cell-based, human. The text has this:
The term “EC1.5x concentration for production of full length SMN2 minigene mRNA” (or “EC1.5x minigene”) is defined as that concentration of test compound that is effective in increasing the amount of full length SMN2 minigene mRNA to a level 1.5-fold greater relative to that in vehicle-treated cells.
The reverse transcription-quantitative PCR-based (RT-qPCR) assay is used to quantify the level of the full length SMN2 minigene (referred to herein by the term “FL SMN2mini”) mRNA containing SMN2 exon 7 in a HEK293H cell line stably transfected with said minigene and treated with a test compound. Materials used and respective sources are listed below in Table 1.
The SMN2-A minigene construct was prepared as described in International Patent Application WO2009/151546A1 page 145 paragraph [00400] to page 147 paragraph [00412](incl. FIG. 1 and FIG. 3 therein).
HEK293H cells stably transfected with the SMN2-A minigene construct (10,000 cells/well) are seeded in 200 μL of cell culture medium (DMEM plus 10% FBS, with 200 μg/mL hygromycin) in 96-well flat-bottom plates and the plate is immediately swirled to ensure proper dispersal of cells and the formation of an even monolayer of cells. Cells are allowed to attach for 6 hours. Test compounds are serially diluted 3.16-fold in 100% DMSO to generate a 7-point concentration curve. A solution of test compound (1 μL, 200× in DMSO) is added to each cell-containing well and the plate is incubated for 24 hours in a cell culture incubator (37° C., 5% CO2, 100% relative humidity). 2 replicates are prepared for each test compound concentration. The cells are then lysed in the Cells-To-Ct lysis buffer and the lysate is stored at −80° C.
Full length SMN2-A minigene and GAPDH mRNA are quantified using the primers and probes referenced in WO2014/209841A2 on page 80 in Table 1. Primer SMN Forward A (SEQ ID NO.1) hybridizes to a nucleotide sequence in exon 7 (nucleotide 22 to nucleotide 40), primer SMN Reverse A (SEQ ID NO.2) hybridizes to a nucleotide sequence in the coding sequence of Firefly luciferase, SMN Probe A (SEQ ID NO.3) hybridizes to a nucleotide sequence in exon 7 (nucleotide 50 to nucleotide 54) and exon 8 (nucleotide 1 to nucleotide 21). The combination of these three oligonucleotides detects only SMN1 or SMN2 minigenes (RT-qPCR) and will not detect endogenous SMN1 or SMN2 genes.
The SMN forward and reverse primers are used at final concentrations of 0.4 μM. The SMN probe is used at a final concentration of 0.15 μM. The GAPDH primers are used at final concentrations of 0.2 μM and the probe at 0.15 μM.
The SMN2-minigene GAPDH mix (15 μL total volume) is prepared by combining 7.5 μL of 2×RT-PCR buffer, 0.4 μL of 25×RT-PCR enzyme mix, 0.75 μL of 20×GAPDH primer-probe mix, 4.0075 μL of water, 2 μL of 10-fold diluted cell lysate, 0.06 μL of 100 μM SMN forward primer, 0.06 μL of 100 μM SMN reverse primer, and 0.225 μL of 100 μM SMN probe.
PCR is carried out at the following temperatures for the indicated time: Step 1: 48° C. (15 min); Step 2: 95° C. (10 min); Step 3: 95° C. (15 sec); Step 4: 60° C. (1 min); then repeat Steps 3 and 4 for a total of 40 cycles.
Each reaction mixture contains both SMN2-A minigene and GAPDH primers/probe sets (multiplex design), allowing simultaneous measurement of the levels of two transcripts.
The increase in the abundance of the FL SMN2mini mRNA relative to that in cells treated with vehicle control is determined from real-time PCR data using a modified ΔΔCt method (as described in Livak and Schmittgen, Methods, 2001, 25:402-8). The amplification efficiency E is calculated from the slope of the amplification curve for FL SMN2mini and GAPDH individually. The abundance of FL SMN2mini and GAPDH mRNA are then calculated as (1+E)^−Ct, where Ct is the threshold value for each amplicon. The abundance of FL SMN2mini mRNA is normalized to GAPDH mRNA abundance. […]
A general note: In qPCR the cycle at which signal appears reflects the starting amount.

For data set [7], the system named is splicing events and expression levels of genes. The note with it: Palacino et al, Nat Chem Biol. 2015, cited from earlier work.

Values after ≈ are worked out from the molar mass of the structure shown. Where two headings read alike, the source gives them in different places. Where only a bound is given, the exact number is not on record here.

As for `CC(C)CCC[C@@H](C)[C@H]1CC[C@H]2[C@@H]3CCC4=C/C(=N/O)CC[C@]4(C)[C@H]3CC[C@]12C` (stereo in doubt) [Olesoxime, Cholest-4-en-3-one oxime], the solubility (usually the dissolved amount per volume that the medium holds) was < 0.005 mg/mL in data set [1] (aqueous medium, aqueous buffer, across the physiological pH range, read-out: aqueous solubility) and ~35 mg/mL (≈ 87.6 mM) in data set [1] (sesame oil, oil or lipid, read-out: solubility in sesame oil). The “stable in the solid state” value in data set [2] is reported as > 36 months. Moreover, the “motor function (motor function measure, MFM)” value in data set [3] is listed as “maintenance of motor function”. The “effect on motor neurons after nerve lesion” value in data set [4] was “rescues motor neurons from cell death”. Also, the “effect on nerve regeneration after nerve crush” value in data set [5] is recorded as “promotes nerve regeneration”.

With `Cc1cn2nc(-c3cc(=O)n4cc(N5CCN6CCC[C@@]6(C)C5)ccc4n3)cc(C)c2n1` [Example 5, 7-[(8aS)-8a-methyl-1,3,4,6,7,8-hexahydropyrrolo[1,2-a]pyrazin-2-yl]-2-(2,8-dimethylimidazo[1,2-b]pyridazin-6-yl)pyrido[1,2-a]pyrimidin-4-one], the EC (1.5-fold increase) in data set [6] came to 0.0006 µM.

For `Cc1cn2nc(-c3cc(=O)n4cc(N5CCN[C@@H](C)C5)ccc4n3)cc(C)c2n1` [Example 8, 2-(2,8-dimethylimidazo[1,2-b]pyridazin-6-yl)-7-[(3S)-3-methylpiperazin-1-yl]pyrido[1,2-a]pyrimidin-4-one], the EC (1.5-fold increase) in data set [6] turned out to be 0.0003 µM.

For the compound `Cc1cn2nc(-c3cc(=O)n4cc(N5CCN[C@H](C)C5)ccc4n3)cc(C)c2n1` [Example 9, 2-(2,8-dimethylimidazo[1,2-b]pyridazin-6-yl)-7-[(3R)-3-methylpiperazin-1-yl]pyrido[1,2-a]pyrimidin-4-one], in data set [6], the EC (1.5-fold increase) came to 0.0001 µM.

For the compound `Cc1cn2nc(-c3cc(=O)n4cc(N5CCCNCC5)ccc4n3)ccc2n1` [Example 13, 7-(1,4-diazepan-1-yl)-2-(2-methylimidazo[1,2-b]pyridazin-6-yl)pyrido[1,2-a]pyrimidin-4-one], the EC (1.5-fold increase) in data set [6] is 0.005 µM.

As to `Cc1cn2nc(-c3cc(=O)n4cc(N5CCN6CCC[C@H]6C5)ccc4n3)ccc2n1` [Example 15, 7-[(8aS)-3,4,6,7,8,8a-hexahydro-1H-pyrrolo[1,2-a]pyrazin-2-yl]-2-(2-methylimidazo[1,2-b]pyridazin-6-yl)pyrido[1,2-a]pyrimidin-4-one], the EC (1.5-fold increase) in data set [6] was 0.004 µM.

Consider `Cc1cn2nc(-c3cc(=O)n4cc(N5CCNC(C)(C)C5)ccc4n3)cc(C)c2n1` [Example 22, 2-(2,8-dimethylimidazo[1,2-b]pyridazin-6-yl)-7-(3,3-dimethylpiperazin-1-yl)pyrido[1,2-a]pyrimidin-4-one], for which the EC (1.5-fold increase) in data set [6] came to 0.0009 µM.

Turning to `Cc1cn2nc(-c3cc(=O)n4cc(N5CCN[C@@H](C)C5)cc(C)c4n3)cc(C)c2n1` [Example 24, 2-(2,8-dimethylimidazo[1,2-b]pyridazin-6-yl)-9-methyl-7-[(3S)-3-methylpiperazin-1-yl]pyrido[1,2-a]pyrimidin-4-one], the EC (1.5-fold increase) in data set [6] stood at 0.0004 µM.

Turning to `Cc1cn2nc(-c3cc(=O)n4cc(N5CCN[C@H](C)C5)cc(C)c4n3)cc(C)c2n1` [Example 25, 2-(2,8-dimethylimidazo[1,2-b]pyridazin-6-yl)-9-methyl-7-[(3R)-3-methylpiperazin-1-yl]pyrido[1,2-a]pyrimidin-4-one], the EC (1.5-fold increase) in data set [6] came out at 0.0005 µM.

Consider `Cc1cn2nc(-c3cc(=O)n4cc(N5CCNC6(CC6)C5)cc(C)c4n3)cc(C)c2n1` [Example 28, 7-(4,7-diazaspiro[2.5]octan-7-yl)-2-(2,8-dimethylimidazo[1,2-b]pyridazin-6-yl)-9-methyl-pyrido[1,2-a]pyrimidin-4-one], for which the EC (1.5-fold increase) in data set [6] came to 0.005 µM.

As for `Cc1cn2nc(-c3cc(=O)n4cc(N5C[C@H](C)N[C@@H](C)C5)ccc4n3)cc(C)c2n1` [Example 29, 2-(2,8-dimethylimidazo[1,2-b]pyridazin-6-yl)-7-[(3S,5S)-3,5-dimethylpiperazin-1-yl]pyrido[1,2-a]pyrimidin-4-one], the EC (1.5-fold increase) in data set [6] turned out to be 0.0003 µM.

In the case of `Cc1cn2nc(-c3cc(=O)n4cc(N5CC[C@H](N6CCCC6)C5)ccc4n3)cc(C)c2n1` [Example 30, 2-(2,8-dimethylimidazo[1,2-b]pyridazin-6-yl)-7-[(3S)-3-pyrrolidin-1-ylpyrrolidin-1-yl]pyrido[1,2-a]pyrimidin-4-one], in data set [6], the EC (1.5-fold increase) amounted to 0.003 µM.

With `Cc1cn2nc(-c3cc(=O)n4cc(N5CCN[C@@H](C)C5)cc(C)c4n3)ccc2n1` [Example 33, 9-methyl-2-(2-methylimidazo[1,2-b]pyridazin-6-yl)-7-[(3S)-3-methylpiperazin-1-yl]pyrido[1,2-a]pyrimidin-4-one], the EC (1.5-fold increase) in data set [6] amounted to 0.0005 µM.

Turning to `Cc1cn2nc(-c3cc(=O)n4cc(N5CCN[C@H](C)C5)cc(C)c4n3)ccc2n1` [Example 34, 9-methyl-2-(2-methylimidazo[1,2-b]pyridazin-6-yl)-7-[(3R)-3-methylpiperazin-1-yl]pyrido[1,2-a]pyrimidin-4-one], the EC (1.5-fold increase) in data set [6] was determined as 0.0009 µM.

For `Cc1cn2nc(-c3cc(=O)n4cc(N5CCNC(C)(C)C5)cc(C)c4n3)ccc2n1` [Example 36, 7-(3,3-dimethylpiperazin-1-yl)-9-methyl-2-(2-methylimidazo[1,2-b]pyridazin-6-yl)pyrido[1,2-a]pyrimidin-4-one], the EC (1.5-fold increase) in data set [6] was found to be 0.005 µM.

Turning to `Cc1cn2nc(-c3cc(=O)n4cc(N5C[C@H](C)N[C@@H](C)C5)cc(C)c4n3)ccc2n1` [Example 38, 7-[(3S,5S)-3,5-dimethylpiperazin-1-yl]-9-methyl-2-(2-methylimidazo[1,2-b]pyridazin-6-yl)pyrido[1,2-a]pyrimidin-4-one], in data set [6], the EC (1.5-fold increase) turned out to be 0.0003 µM.

As for `CC[C@@H]1CN(c2ccc3nc(-c4ccc5nc(C)cn5n4)cc(=O)n3c2)CCN1` [Example 39, 7-[(3R)-3-ethylpiperazin-1-yl]-2-(2-methylimidazo[1,2-b]pyridazin-6-yl)pyrido[1,2-a]pyrimidin-4-one], the EC (1.5-fold increase) in data set [6] was 0.0009 µM.

With `CC1(C)CC(Oc2ccc(-c3ccc(-c4cn[nH]c4)cc3O)nn2)CC(C)(C)N1` [NVS-SM1], the “candidate events where splicing changed in response to treatment” value in data set [7] is on record as 39. For the same compound, in data set [7] (expression level), the “number of genes changed at greater than ±2-fold (p<0.05)” value is reported as 175.

The record behind these values is patent US11938136B2, “Compositions for treating spinal muscular atrophy” (Hoffmann-La Roche Inc., priority 2015, dated 2024).
